What follows are compounds tested on HBsAg secretion, HepG2-Clone42 cells (Tet-inducible HBV-expressing, HBV ayw strain) (assay: HBsAg assay (HBsAg ELISA, secreted HBV sAg from HepG2-Clone42 cells)). Details: Hepatitis B virus, read-out: HBsAg (nM), EC50 = concentration at which HBsAg secretion was reduced 50% compared to DMSO control.
Format: cell-based
Method: HepG2-Clone42, a Tet-inducible HBV-expressing cell line with a stably integrated 1.3 mer copy of the HBV ayw strain, was generated based on the Tet-inducible HepAD38 cell line with slight modifications. Ladner S K, et al., Antimicrobial Agents and Chemotherapy. 41(8):1715-1720 (1997). HepG2-Clone42 cells were cultured in DMEM/F-12+Glutamax™ (Life Technologies, Carlsbad, Calif., USA), supplemented with 10% fetal bovine serum (Life Technologies), G-418 (Corning, Manassas, Va., USA) at a final concentration of 0.5 mg/mL, and 5 μg/mL Doxycycline (Sigma, St. Louis, Mo., USA) and maintained in 5% CO2 at 37° C.
HepG2-Clone42 cells were seeded into black clear-bottom 96-well plates at a concentration of 6.0×10^4 cells/well. 24 hours post-seeding, the cells were treated with 200 μl/well of media containing five-fold serial dilutions of compounds in DMSO. DMSO alone was used as the no drug control. The final DMSO concentration in all wells was 0.5%.
The HBsAg ELISA kit (Alpha Diagnostic International, San Antonio, Tex., USE, Catalog #4110) was used to determine the level (semi-quantitative) of secreted HBV sAg. The HBSAg ELISA assay was performed following the manufacturer's protocol as described.
Step 1. Pipet 100 μL each of compound or DMSO treated samples into HBsAg ELISA plates. Seal plates and incubate at room temp for 60 minutes.
Step 2. Aspirate samples and wash three times with Wash Buffer. Dispense 100 μL of antibody-HRP conjugate to each well. Incubate at room temp for 30 minutes.
Step 3. Aspirate samples and wash three times with Wash Buffer. Add 100 μL of TMB Substrate to all wells and incubate 15 minutes at room temp.
Step 4. Dispense 100 μL of Stop Solution to each well. Measure absorbance of ELISA plate at 450 nm.
Dose-response curves were generated and the EC50 value was defined as the compound concentration at which HBsAg secretion was reduced 50% compared to the DMSO control.
EC50 values were determined as follows:
Determine the percent of HBsAg secretion inhibition. Calculate the percent inhibition on of HBsAg secretion inhibition using the following equation: […]
where XC is the absorbance signal from compound-treated well; MB is average absorbance signal (background signal) for column 12 (no cells+HBsAg ELISA sample buffer) and MD is average absorbance signal from DMSO-treated wells. Then calculate EC50 values by non-linear regression using a four parameter curve logistic equation.
The curve fit model employed is XLFit Dose Response One Site Model 204: y=(A+((B−A)/(1+(10^((C−x)*D))))) where A is the minimum y value, B is the maximum y value, C is the log EC50 value, and D is the slope factor. In the following table+≥100 nM; 100 nM>++≥1 nM; 1 nM>+++
Compound CC1(COc2cccc3c4n(nc23)CC(C(C)(C)C)n2cc(C(=O)O)c(=O)cc2-4)COC1 (racemic) [Example 2.45, 6-(tert-butyl)-10-((3-methyloxetan-3-yl)methoxy)-2-oxo-6,7-dihydro-2H-pyrido[2′,1′:3,4]pyrazino[1,2-b]indazole-3-carboxylic Acid] has an EC50 of 1 to 100 nM.
CC(C)(C)C1Cn2nc3c(OCC4(C#N)CC4)cccc3c2-c2cc(=O)c(C(=O)O)cn21 (racemic) [Example 2.46, 6-(tert-butyl)-10-((1-cyanocyclopropyl)methoxy)-2-oxo-6,7-dihydro-2H-pyrido[2′,1′:3,4]pyrazino[1,2-b]indazole-3-carboxylic Acid] gave an EC50 of 1 to 100 nM.
COc1ccc2c3n(nc2c1)CC(C(C)(C)C)n1cc(C(=O)O)c(=O)cc1-3 (single isomer, unassigned) [Example 1.2-I, 6-(tert-butyl)-11-methoxy-2-oxo-6,7-dihydro-2H-pyrido[2′,1′:3,4]pyrazino[1,2-b]indazole-3-carboxylic acid] showed an EC50 of 1 to 100 nM.
COc1ccc2nn3c(c2c1)-c1cc(=O)c(C(=O)O)cn1C(C(C)(C)C)C3 (single isomer, unassigned) [Example 1.3-II, 6-(tert-butyl)-12-methoxy-2-oxo-6,7-dihydro-2H-pyrido[2′,1′:3,4]pyrazino[1,2-b]indazole-3-carboxylic acid] gave an EC50 of 1 to 100 nM.
COCCCOc1cccc2c3n(nc12)CC(C(C)(C)C)n1cc(C(=O)O)c(=O)cc1-3 (single isomer, unassigned) [Example 2.1-I, 6-(tert-butyl)-10-(3-methoxypropoxy)-2-oxo-6,7-dihydro-2H-pyrido[2′,1′:3,4]pyrazino[1,2-b]indazole-3-carboxylic Acid] was tested, and the EC50 was under 1 nM.
With CC(C)(C)C1Cn2nc3c(OC[C@@H]4CCC(=O)N4)cccc3c2-c2cc(=O)c(C(=O)O)cn21 (single isomer, unassigned) [Example 2.33-I] the EC50 was over 100 nM.
CC(C)(C)C1Cn2nc3c(OC[C@H]4CCC(=O)N4)cccc3c2-c2cc(=O)c(C(=O)O)cn21 (single isomer, unassigned) [Example 2.34-I] gave an EC50 of over 100 nM.
COCC(C)Oc1cccc2c3n(nc12)CC(C(C)(C)C)n1cc(C(=O)O)c(=O)cc1-3 (single isomer, unassigned) [Example 2.35-I, 6-(tert-butyl)-10-((1-methoxypropan-2-yl)oxy)-2-oxo-6,7-dihydro-2H-pyrido[2′,1′:3,4]pyrazino[1,2-b]indazole-3-carboxylic Acid] gave an EC50 of 1 to 100 nM.

Same assay, conditions: read-out: HBsAg, EC50 = concentration at which HBsAg secretion was reduced 50% compared to DMSO control
In the case of COc1cccc2c3n(nc12)CC(C(C)(C)C)n1cc(C(=O)O)c(=O)cc1-3 (single isomer, unassigned) [Example 1.1-I, 6-(tert-butyl)-10-methoxy-2-oxo-6,7-dihydro-2H-pyrido[2′,1′:3,4]pyrazino[1,2-b]indazole-3-carboxylic acid], the EC50 is reported as under 1 nM.
COc1cccc2c3n(nc12)CC(C(C)(C)C)n1cc(C(=O)O)c(=O)cc1-3 (single isomer, unassigned) [Example 1.1-II, 6-(tert-butyl)-10-methoxy-2-oxo-6,7-dihydro-2H-pyrido[2′,1′:3,4]pyrazino[1,2-b]indazole-3-carboxylic acid] was tested, and the EC50 was over 100 nM.
Work on COc1ccc2c3n(nc2c1)CC(C(C)(C)C)n1cc(C(=O)O)c(=O)cc1-3 (single isomer, unassigned) [Example 1.2-II, 6-(tert-butyl)-11-methoxy-2-oxo-6,7-dihydro-2H-pyrido[2′,1′:3,4]pyrazino[1,2-b]indazole-3-carboxylic acid] yielded an EC50 of 1 to 100 nM.
COc1ccc2nn3c(c2c1)-c1cc(=O)c(C(=O)O)cn1C(C(C)(C)C)C3 (single isomer, unassigned) [Example 1.3-I, 6-(tert-butyl)-12-methoxy-2-oxo-6,7-dihydro-2H-pyrido[2′,1′:3,4]pyrazino[1,2-b]indazole-3-carboxylic acid] gave an EC50 of 1 to 100 nM.
For COc1cccc2nn3c(c12)-c1cc(=O)c(C(=O)O)cn1C(C(C)(C)C)C3 (single isomer, unassigned) [Example 1.4-I, 6-(tert-butyl)-13-methoxy-2-oxo-6,7-dihydro-2H-pyrido[2′,1′:3,4]pyrazino[1,2-b]indazole-3-carboxylic acid], the EC50 was over 100 nM.
With COc1cccc2nn3c(c12)-c1cc(=O)c(C(=O)O)cn1C(C(C)(C)C)C3 (single isomer, unassigned) [Example 1.4-II, 6-(tert-butyl)-13-methoxy-2-oxo-6,7-dihydro-2H-pyrido[2′,1′:3,4]pyrazino[1,2-b]indazole-3-carboxylic acid] the EC50 was 1 to 100 nM.
With CC(C)(C)C1Cn2nc3ccccc3c2-c2cc(=O)c(C(=O)O)cn21 (single isomer, unassigned) [Example 1.5-I, 6-(tert-butyl)-2-oxo-6,7-dihydro-2H-pyrido[2′,1′:3,4]pyrazino[1,2-b]indazole-3-carboxylic acid] the EC50 was 1 to 100 nM.
In the case of CC(C)(C)C1Cn2nc3ccccc3c2-c2cc(=O)c(C(=O)O)cn21 (single isomer, unassigned) [Example 1.5-II, 6-(tert-butyl)-2-oxo-6,7-dihydro-2H-pyrido[2′,1′:3,4]pyrazino[1,2-b]indazole-3-carboxylic acid], the EC50 is reported as over 100 nM.
For COCCCOc1cccc2c3n(nc12)CC(C(C)(C)C)n1cc(C(=O)O)c(=O)cc1-3 (single isomer, unassigned) [Example 2.1-II, 6-(tert-butyl)-10-(3-methoxypropoxy)-2-oxo-6,7-dihydro-2H-pyrido[2′,1′:3,4]pyrazino[1,2-b]indazole-3-carboxylic Acid], the EC50 was 1 to 100 nM.
COCCOc1cccc2c3n(nc12)CC(C(C)(C)C)n1cc(C(=O)O)c(=O)cc1-3 (single isomer, unassigned) [Example 2.2-I, 6-(tert-butyl)-10-(2-methoxyethoxy)-2-oxo-6,7-dihydro-2H-pyrido[2′,1′:3,4]pyrazino[1,2-b]indazole-3-carboxylic Acid] was tested, and the EC50 was over 100 nM.
With COCCOc1cccc2c3n(nc12)CC(C(C)(C)C)n1cc(C(=O)O)c(=O)cc1-3 (single isomer, unassigned) [Example 2.2-II, 6-(tert-butyl)-10-(2-methoxyethoxy)-2-oxo-6,7-dihydro-2H-pyrido[2′,1′:3,4]pyrazino[1,2-b]indazole-3-carboxylic Acid] the EC50 was under 1 nM.
Compound CC(C)(C)C1Cn2nc3c(OC[C@@H]4CCC(=O)N4)cccc3c2-c2cc(=O)c(C(=O)O)cn21 (single isomer, unassigned) [Example 2.33-II] has an EC50 of over 100 nM.
Compound CC(C)(C)C1Cn2nc3c(OC[C@H]4CCC(=O)N4)cccc3c2-c2cc(=O)c(C(=O)O)cn21 (single isomer, unassigned) [Example 2.34-II] has an EC50 of over 100 nM.
Compound COCC(C)Oc1cccc2c3n(nc12)CC(C(C)(C)C)n1cc(C(=O)O)c(=O)cc1-3 (single isomer, unassigned) [Example 2.35-II, 6-(tert-butyl)-10-((1-methoxypropan-2-yl)oxy)-2-oxo-6,7-dihydro-2H-pyrido[2′,1′:3,4]pyrazino[1,2-b]indazole-3-carboxylic Acid] has an EC50 of 1 to 100 nM.
CC(C)Oc1cccc2c3n(nc12)CC(C(C)(C)C)n1cc(C(=O)O)c(=O)cc1-3 (single isomer, unassigned) [Example 2.47-I, 6-(tert-butyl)-10-isopropoxy-2-oxo-6,7-dihydro-2H-pyrido[2′,1′:3,4]pyrazino[1,2-b]indazole-3-carboxylic Acid] showed an EC50 of over 100 nM.
CC(C)Oc1cccc2c3n(nc12)CC(C(C)(C)C)n1cc(C(=O)O)c(=O)cc1-3 (single isomer, unassigned) [Example 2.47-II, 6-(tert-butyl)-10-isopropoxy-2-oxo-6,7-dihydro-2H-pyrido[2′,1′:3,4]pyrazino[1,2-b]indazole-3-carboxylic Acid] was tested, and the EC50 was under 1 nM.
In the case of COc1cccc2c3n(nc12)CC(C(C)(C)CO)n1cc(C(=O)O)c(=O)cc1-3 (single isomer, unassigned) [Example 3.1-I, 6-(1-hydroxy-2-methylpropan-2-yl)-10-methoxy-2-oxo-6,7-dihydro-2H-pyrido[2′,1′:3,4]pyrazino[1,2-b]indazole-3-carboxylic Acid], the EC50 is reported as over 100 nM.
